Source: patent publication US9212182B2, “Bicyclic sulfonamide compounds as sodium channel inhibitors” (AMGEN INC., priority 2013, dated 2015)
Read-outs that look alike come from different tables or passages of the source.

Target: Nav 1.7 (Homo sapiens (Human), UniProt Q15858)
Experiment: in-vitro Nav 1.7 PX (IC50)
Type: cell-based

Sequence of Nav 1.7 (Q15858 whole entry): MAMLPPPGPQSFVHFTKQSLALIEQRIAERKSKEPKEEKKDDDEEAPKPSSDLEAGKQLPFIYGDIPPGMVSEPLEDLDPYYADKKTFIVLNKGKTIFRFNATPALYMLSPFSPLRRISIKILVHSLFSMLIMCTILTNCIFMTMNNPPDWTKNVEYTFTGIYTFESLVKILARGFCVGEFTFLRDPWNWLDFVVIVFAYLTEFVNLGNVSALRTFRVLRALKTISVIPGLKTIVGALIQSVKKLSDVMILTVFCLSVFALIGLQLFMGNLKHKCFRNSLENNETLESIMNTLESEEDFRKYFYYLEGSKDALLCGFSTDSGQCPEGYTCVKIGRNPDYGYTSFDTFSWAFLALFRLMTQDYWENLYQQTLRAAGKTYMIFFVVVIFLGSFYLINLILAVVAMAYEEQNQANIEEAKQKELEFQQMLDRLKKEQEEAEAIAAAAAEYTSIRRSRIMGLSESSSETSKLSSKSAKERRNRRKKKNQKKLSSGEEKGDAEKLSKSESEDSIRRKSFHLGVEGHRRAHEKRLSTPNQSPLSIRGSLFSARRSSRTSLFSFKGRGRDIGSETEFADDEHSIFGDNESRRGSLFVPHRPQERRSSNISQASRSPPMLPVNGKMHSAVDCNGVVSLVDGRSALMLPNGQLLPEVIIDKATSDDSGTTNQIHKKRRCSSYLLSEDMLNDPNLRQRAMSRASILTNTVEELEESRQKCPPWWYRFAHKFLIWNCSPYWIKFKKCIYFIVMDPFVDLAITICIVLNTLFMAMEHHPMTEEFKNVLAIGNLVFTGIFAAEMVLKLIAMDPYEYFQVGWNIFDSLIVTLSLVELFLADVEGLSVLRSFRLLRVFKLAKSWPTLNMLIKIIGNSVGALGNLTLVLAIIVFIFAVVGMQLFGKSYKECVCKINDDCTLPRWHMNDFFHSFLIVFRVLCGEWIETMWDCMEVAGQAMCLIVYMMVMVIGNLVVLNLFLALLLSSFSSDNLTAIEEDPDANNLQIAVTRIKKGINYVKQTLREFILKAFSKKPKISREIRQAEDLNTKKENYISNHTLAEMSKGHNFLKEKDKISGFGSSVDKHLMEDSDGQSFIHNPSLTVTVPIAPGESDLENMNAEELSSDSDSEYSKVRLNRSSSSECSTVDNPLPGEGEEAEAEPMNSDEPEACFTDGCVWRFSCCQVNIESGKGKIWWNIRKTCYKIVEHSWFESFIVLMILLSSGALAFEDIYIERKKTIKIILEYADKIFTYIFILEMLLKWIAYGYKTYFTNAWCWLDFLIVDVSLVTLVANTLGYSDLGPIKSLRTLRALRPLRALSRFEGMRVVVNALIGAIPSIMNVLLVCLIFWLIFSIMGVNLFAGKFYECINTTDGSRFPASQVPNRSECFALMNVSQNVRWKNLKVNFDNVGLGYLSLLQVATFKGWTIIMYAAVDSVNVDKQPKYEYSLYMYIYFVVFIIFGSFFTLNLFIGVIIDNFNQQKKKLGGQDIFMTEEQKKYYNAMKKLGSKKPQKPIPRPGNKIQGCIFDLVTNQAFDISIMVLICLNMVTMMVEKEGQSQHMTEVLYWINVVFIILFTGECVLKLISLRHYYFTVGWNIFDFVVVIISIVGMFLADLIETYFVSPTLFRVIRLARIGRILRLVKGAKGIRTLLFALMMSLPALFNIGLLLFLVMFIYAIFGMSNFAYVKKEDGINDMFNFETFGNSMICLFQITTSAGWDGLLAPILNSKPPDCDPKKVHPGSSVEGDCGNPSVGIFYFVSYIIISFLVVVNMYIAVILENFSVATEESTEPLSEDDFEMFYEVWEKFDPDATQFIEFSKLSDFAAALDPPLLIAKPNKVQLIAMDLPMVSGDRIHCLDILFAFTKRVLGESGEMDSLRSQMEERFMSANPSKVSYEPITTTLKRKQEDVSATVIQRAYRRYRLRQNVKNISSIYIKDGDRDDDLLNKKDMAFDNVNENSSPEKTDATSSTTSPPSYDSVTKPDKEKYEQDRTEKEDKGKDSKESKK

Row | Structure (SMILES) | IC50 (in-vitro Nav 1.7 PX data) | other results
1 | COc1ccc(C)cc1-c1cc(OC)c(-n2c(=O)ccc3cc(S(=O)(=O)Nc4ccon4)ccc32)cc1F [Example 714, 1-(2-fluoro-2′,5-dimethoxy-5′-methyl-4-biphenylyl)-N-3-isoxazolyl-2-oxo-1,2-dihydro-6-quinolinesulfonamide] | 0.048 µM | 
2 | COc1cc(-c2ccc(F)c(F)c2)c(F)cc1-n1c(=O)cnc2cc(S(=O)(=O)Nc3ccon3)ccc21 [Example 1179, N-3-isoxazolyl-2-oxo-1-(2,3′,4′-trifluoro-5-methoxy-4-biphenylyl)-1,2-dihydro-6-quinoxalinesulfonamide] |  | IC50: 0.062 µM
3 | COc1ccc(-c2cc(F)cc(Cl)c2)cc1-n1c(=O)ccc2cc(S(=O)(=O)Nc3ncco3)ccc21 [Example 864, 1-(3′-chloro-5′-fluoro-4-methoxy-3-biphenylyl)-N-1,3-oxazol-2-yl-2-oxo-1,2-dihydro-6-quinolinesulfonamide] | 0.043 µM | 
4 | COc1ccc(-c2cncc(C#N)c2)cc1-n1c(=O)ccc2cc(S(=O)(=O)Nc3ccon3)ccc21 [Example 491, 1-(5-(5-cyano-3-pyridinyl)-2-methoxyphenyl)-N-3-isoxazolyl-2-oxo-1,2-dihydro-6-quinolinesulfonamide] |  | IC50: 2.07 µM
5 | COc1ccc(-c2cc(F)ccc2F)cc1-n1c(=O)ccc2cc(S(=O)(=O)Nc3ccon3)ccc21 [Example 840, 1-(2′,5′-difluoro-4-methoxy-3-biphenylyl)-N-3-isoxazolyl-2-oxo-1,2-dihydro-6-quinolinesulfonamide] | 0.163 µM | 
6 | COc1cc(-c2ccc(-n3c(=O)ccc4cc(S(=O)(=O)Nc5ccon5)ccc43)c(OC)c2)ccc1F [Example 1017, 1-(4′-fluoro-3,3′-dimethoxy-4-biphenylyl)-N-3-isoxazolyl-2-oxo-1,2-dihydro-6-quinolinesulfonamide] | 0.08 µM | 
7 | COc1cc(F)cc(-c2ccc(OC)c(-n3c(=O)ccc4cc(S(=O)(=O)Nc5ccon5)ccc43)c2)c1 [Example 838, 1-(3′-fluoro-4,5′-dimethoxy-3-biphenylyl)-N-3-isoxazolyl-2-oxo-1,2-dihydro-6-quinolinesulfonamide] | 0.069 µM | 
8 | COc1cc(-c2cc(F)cc(Cl)c2)c(F)cc1-n1c(=O)ccc2cc(S(=O)(=O)Nc3cnccn3)ccc21 (atropisomer, axis not shown; (P)) [Example 543, (P)-1-(3′-chloro-2,5′-difluoro-5-methoxy-4-biphenylyl)-2-oxo-N-2-pyrazinyl-1,2-dihydro-6-quinolinesulfonamide] |  | IC50: 0.013 µM
9 | COc1cc(-c2cc(Cl)cnc2OC)c(F)cc1-n1c(=O)ccc2cc(S(=O)(=O)Nc3cc(C)ncn3)ccc21 [Example 777, 1-(4-(5-chloro-2-methoxy-3-pyridinyl)-5-fluoro-2-methoxyphenyl)-N-(6-methyl-4-pyrimidinyl)-2-oxo-1,2-dihydro-6-quinolinesulfonamide] | 0.103 µM | 
10 | COc1cc(-c2cccc(C(F)(F)F)c2)c(F)cc1-n1c(=O)ccc2cc(S(=O)(=O)[N-][n+]3ccccc3)ccc21 [Example 817, ((1-(2-fluoro-5-methoxy-3′-(trifluoromethyl)-4-biphenylyl)-2-oxo-1,2-dihydro-6-quinolinyl)sulfonyl)(1-pyridiniumyl)azanide] | 4.53 µM | 
11 | COc1cc(-c2ccc(F)c(C)c2)c(F)cc1-n1c(=O)ccc2cc(S(=O)(=O)Nc3cc(C)ncn3)ccc21 [Example 945, 1-(2,4′-difluoro-5-methoxy-3′-methyl-4-biphenylyl)-N-(6-methyl-4-pyrimidinyl)-2-oxo-1,2-dihydro-6-quinolinesulfonamide] | 0.034 µM | 
12 | COc1ccc(-c2ccc(Cl)c(C)c2)cc1-n1c(=O)ccc2cc(S(=O)(=O)Nc3ccon3)ccc21 [Example 846, 1-(4′-chloro-4-methoxy-3′-methyl-3-biphenylyl)-N-3-isoxazolyl-2-oxo-1,2-dihydro-6-quinolinesulfonamide] | 0.025 µM | 
13 | COc1cc(-c2ccc(F)c(F)c2)ccc1-n1c(=O)ccc2cc(S(=O)(=O)Nc3ccon3)ccc21 [Example 1014, 1-(3′,4′-difluoro-3-methoxy-4-biphenylyl)-N-3-isoxazolyl-2-oxo-1,2-dihydro-6-quinolinesulfonamide] | 0.053 µM | 
14 | COc1cc(-c2cc(F)c(F)cc2C)ccc1-n1c(=O)ccc2cc(S(=O)(=O)Nc3ccon3)ccc21 [Example 1064, 1-(4′,5′-difluoro-3-methoxy-2′-methyl-4-biphenylyl)-N-3-isoxazolyl-2-oxo-1,2-dihydro-6-quinolinesulfonamide] |  | IC50 (in-vitro Nav 1.7 PX data (PatchXpress)): 0.013 µM
15 | COc1cc(Cl)c(-c2cccc(F)c2)cc1-n1c(=O)ccc2cc(S(=O)(=O)Nc3ccon3)ccc21 (atropisomer, axis not shown; (P)) [Example 608, (P)-1-(6-chloro-3′-fluoro-4-methoxy-3-biphenylyl)-N-3-isoxazolyl-2-oxo-1,2-dihydro-6-quinolinesulfonamide] | 0.012 µM | 
16 | COc1cc(-c2cccc(OC)c2Cl)c(F)cc1-n1c(=O)ccc2cc(S(=O)(=O)Nc3ccon3)ccc21 [Example 731, 1-(2′-chloro-2-fluoro-3′,5-dimethoxy-4-biphenylyl)-N-3-isoxazolyl-2-oxo-1,2-dihydro-6-quinolinesulfonamide] | 0.142 µM | 

Row | Structure (SMILES) | IC50 (in-vitro Nav 1.7 PX data) | other results
17 | COc1cc(-c2ccnc(OC)c2Cl)c(F)cc1-n1c(=O)ccc2cc(S(=O)(=O)Nc3ccon3)ccc21 [Example 745, 1-(4-(3-chloro-2-methoxy-4-pyridinyl)-5-fluoro-2-methoxyphenyl)-N-3-isoxazolyl-2-oxo-1,2-dihydro-6-quinolinesulfonamide] | 0.051 µM | 
18 | COc1cc(-c2cccc(OC(F)F)c2)c(F)cc1-n1c(=O)ccc2cc(S(=O)(=O)Nc3cccnn3)ccc21 (atropisomer, axis not shown; (P)) [Example 1172, (P)-1-(3′-(difluoromethoxy)-2-fluoro-5-methoxy-4-biphenylyl)-2-oxo-N-3-pyridazinyl-1,2-dihydro-6-quinolinesulfonamide] |  | IC50: 0.029 µM
19 | COc1cc(-c2cccc(C#N)c2)ccc1-n1c(=O)ccc2cc(S(=O)(=O)Nc3ccon3)ccc21 [Example 1019, 1-(3′-cyano-3-methoxy-4-biphenylyl)-N-3-isoxazolyl-2-oxo-1,2-dihydro-6-quinolinesulfonamide] | 0.098 µM | 
20 | COc1cc(-c2ccc(F)c(F)c2)ccc1-n1c(=O)ccc2cc(S(=O)(=O)Nc3cc(C)ncn3)ccc21 [Example 899, 1-(3′,4′-difluoro-3-methoxy-4-biphenylyl)-N-(6-methyl-4-pyrimidinyl)-2-oxo-1,2-dihydro-6-quinolinesulfonamide] | 0.107 µM | 
21 | COc1ccc(F)c(-c2cc(OC)c(-n3c(=O)ccc4cc(S(=O)(=O)Nc5ccon5)ccc43)cc2F)c1 [Example 732, 1-(2,2′-difluoro-5,5′-dimethoxy-4-biphenylyl)-N-3-isoxazolyl-2-oxo-1,2-dihydro-6-quinolinesulfonamide] | 0.056 µM | 
22 | COc1cc(Cl)cc(-c2ccc(-n3c(=O)ccc4cc(S(=O)(=O)Nc5ncccn5)ccc43)c(OC)c2)c1 [Example 923, 1-(3′-chloro-3,5′-dimethoxy-4-biphenylyl)-2-oxo-N-2-pyrimidinyl-1,2-dihydro-6-quinolinesulfonamide] | 0.012 µM | 
23 | COc1cc(-c2cc(F)cc(C(F)(F)F)c2)ccc1-n1c(=O)ccc2cc(S(=O)(=O)Nc3cccnn3)ccc21 [Example 1095, 1-(3′-fluoro-3-methoxy-5′-(trifluoromethyl)-4-biphenylyl)-2-oxo-N-3-pyridazinyl-1,2-dihydro-6-quinolinesulfonamide] | 0.006 µM | 
24 | COc1cc(-c2cccc(C)c2)ccc1-n1c(=O)ccc2cc(S(=O)(=O)Nc3ccon3)ccc21 (atropisomer, axis not shown; (M)) [Example 583, (M)-N-3-isoxazolyl-1-(3-methoxy-3′-methyl-4-biphenylyl)-2-oxo-1,2-dihydro-6-quinolinesulfonamide] |  | IC50: > 10 µM
25 | COc1cc(-c2cccc(OC(C)C)c2)ccc1-n1c(=O)ccc2cc(S(=O)(=O)Nc3ncc(F)cn3)ccc21 [Example 827, N-(5-fluoro-2-pyrimidinyl)-1-(3-methoxy-3′-(1-methylethoxy)-4-biphenylyl)-2-oxo-1,2-dihydro-6-quinolinesulfonamide] | 0.177 µM | 
26 | COc1ccc(-c2ccc(C(F)(F)F)cc2)cc1-n1c(=O)ccc2cc(S(=O)(=O)Nc3ccon3)ccc21 [Example 856, N-3-isoxazolyl-1-(4-methoxy-4′-(trifluoromethyl)-3-biphenylyl)-2-oxo-1,2-dihydro-6-quinolinesulfonamide] | 0.035 µM | 
27 | COc1cc(-c2cc(Cl)ccc2C)ccc1-n1c(=O)ccc2cc(S(=O)(=O)Nc3ccon3)ccc21 [Example 1029, 1-(5′-chloro-3-methoxy-2′-methyl-4-biphenylyl)-N-3-isoxazolyl-2-oxo-1,2-dihydro-6-quinolinesulfonamide] | 0.003 µM | 
28 | COc1cc(-c2ccc(Cl)c(F)c2)c(F)cc1-n1c(=O)ccc2cc(S(=O)(=O)Nc3ccon3)ccc21 (atropisomer, axis not shown; (P)) [Example 503, (P)-1-(4′-chloro-2,3′-difluoro-5-methoxy-4-biphenylyl)-N-3-isoxazolyl-2-oxo-1,2-dihydro-6-quinolinesulfonamide] |  | IC50 (in-vitro PatchXpress (PX)): 1.1 µM
29 | COc1ccc(-c2cccc(C(F)(F)F)c2)cc1-n1c(=O)ccc2cc(S(=O)(=O)Nc3ccon3)ccc21 (atropisomer, axis not shown; (M)) [Example 382, (M)-N-3-isoxazolyl-1-(4-methoxy-3′-(trifluoromethyl)-3-biphenylyl)-2-oxo-1,2-dihydro-6-quinolinesulfonamide] |  | IC50: 3.08 µM
30 | COc1cc(-c2ccc(C)c(F)c2)c(F)cc1-n1c(=O)ccc2cc(S(=O)(=O)Nc3ccon3)ccc21 (atropisomer, axis not shown; (M)) [Example 511, (M)-1-(2,3′-difluoro-5-methoxy-4′-methyl-4-biphenylyl)-N-3-isoxazolyl-2-oxo-1,2-dihydro-6-quinolinesulfonamide] |  | IC50 (in-vitro PatchXpress (PX)): 8.62 µM
31 | COc1nc(OCC(F)(F)F)c(Cl)cc1-n1c(=O)ccc2cc(S(=O)(=O)Nc3ccon3)ccc21 [Example 833, 1-(5-chloro-2-methoxy-6-(2,2,2-trifluoroethoxy)-3-pyridinyl)-N-3-isoxazolyl-2-oxo-1,2-dihydro-6-quinolinesulfonamide] | 0.565 µM | 
